# Assay results reported in patent US20250188110A1, “SPECIFIC SMALL MOLECULE INHIBITORS THAT BLOCK KMT9 METHYLTRANSFERASE ACTIVITY AND FUNCTION” (ALBERT-LUDWIGS-UNIVERSITÄT FREIBURG, priority 2021, published 2025).
# Columns and labels:
# [1] = molecular target: T1, KMT9 (Homo sapiens, UniProt Q9Y5N5); experiment: KMT9 thermal shift assay (SyproOrange); assay type: binding; details: 500 µM compound, 2 μM KMT9; read-out: Thermal shift (ΔTm)
# T1 sequence (Q9Y5N5 1-214): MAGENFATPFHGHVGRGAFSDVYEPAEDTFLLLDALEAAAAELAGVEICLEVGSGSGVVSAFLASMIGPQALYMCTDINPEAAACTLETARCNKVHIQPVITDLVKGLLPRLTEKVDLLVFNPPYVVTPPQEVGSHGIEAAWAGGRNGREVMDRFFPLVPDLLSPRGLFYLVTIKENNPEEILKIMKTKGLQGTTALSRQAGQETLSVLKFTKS
# T1 sequence (Q9UI30 1-120 isoform Q9UI30-2 partner): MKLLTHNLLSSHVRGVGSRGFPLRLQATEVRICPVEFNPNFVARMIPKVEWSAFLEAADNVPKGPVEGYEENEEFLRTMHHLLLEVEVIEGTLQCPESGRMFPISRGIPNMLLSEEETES
# Procedure, shortened: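 ΔTm versus DMSO-only control is reported in bins (>20 K, 15–20 K, 10–15 K, ≤10 K), using Tm from Boltzmann sigmoidal fits of SyproOrange melt curves. KMT9 with compound in pH 8.5 BTP buffer containing MgCl2 and DTT was preincubated at 25° C, then ramped 1° C per 15 s up to 95° C.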
# [2] = molecular target: T1, KMT9; experiment: KMT9 methyltransferase inhibition assay, MTaseGlo luminescence (from entry 155); assay type: biochemical; details: MTaseGlo procedure (entries from 155); 100 nM KMT9, 5 μM ETF1, 1 μM SAM; read-out: Inhibition (IC50)
# Procedure, shortened: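 KMT9 (100 nM final) pre-incubated with inhibitor for 15 min at room temperature, then reacted with 5 μM ETF1 and 1 μM SAM for 2 h at 30° C. at 2% DMSO final. MTaseGlo luminescence read after 60 min detection; IC50 reported in four potency bins.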
# [3] = molecular target: T1, KMT9; experiment: Microscale thermophoresis (MST) KMT9 binding; details: His-tag labelled KMT9 20 nM; read-out: MST (Kd)
# Procedure, shortened: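 Kd from microscale thermophoresis: compound series against 20 nM His-KMT9 labelled via RED-Tris-NTA, buffer 25 mM HEPES (pH 7.5)/100 mM NaCl/1 mM DTT/0.05% Tween, 40% MST power, 100% LED. Reported as classes: A ≤10 nM, B >10–100 nM, C >100–1000 nM, D >1000 nM.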
SMILES,ΔTm at 500 µM [1] [°C],IC50 [2] [nM],Kd [3] [nM]
"CNc1ncnc2c1ccn2[C@@H]1C[C@H](c2cn[nH]c2)[C@@H](O)[C@H]1O [Compound 657, (1R,2S,3R,5R)-3-[4-(Methylamino)pyrrolo[2,3-d]pyrimidin-7-yl]-5-(1H-pyrazol-4-yl)cyclopentane-1,2-diol]",≤ 10,> 10000,> 1000
"Nc1ncnc2c1ccn2[C@@H]1C[C@H](c2cn[nH]c2)[C@@H](O)[C@H]1O [Compound 658, (1R,2S,3R,5R)-3-{4-Aminopyrrolo[2,3-d]pyrimidin-7-yl}-5-(1H-pyrazol-4-yl)cyclopentane-1,2-diol]",≤ 10,> 10000,> 1000
"NCc1cccc([C@H]2C[C@@H](n3ccc4c(N)ncnc43)[C@H](O)[C@@H]2O)c1 [Compound 659, (1R,2S,3R,5R)-3-(4-Amino-7H-pyrrolo[2,3-d]pyrimidin-7-yl)-5-(3-(aminomethyl)phenyl)cyclopentane-1,2-diol]",≤ 10,1000 to 10000,100 to 1000
"NCc1cccc([C@H]2C[C@@H](n3ccc4c(N)nc(Cl)nc43)[C@H](O)[C@@H]2O)c1 [Compound 660, (1R,2S,3R,5R)-3-{4-Amino-2-chloropyrrolo[2,3-d]pyrimidin-7-yl}-5-[3-(aminomethyl)phenyl]cyclopentane-1,2-diol]",15 to 20,< 100,≤ 10
"Cn1cc([C@H]2C[C@@H](n3ccc4c(N)nc(Cl)nc43)[C@H](O)[C@@H]2O)cn1 [Compound 661, (1R,2S,3R,5R)-3-(4-Amino-2-chloro-7H-pyrrolo[2,3-d]pyrimidin-7-yl)-5-(1-methyl-1H-pyrazol-4-yl)cyclopentane-1,2-diol]",≤ 10,1000 to 10000,100 to 1000
"Nc1nc(Cl)nc2c1ccn2[C@@H]1C[C@H](c2cc[nH]c(=O)c2)[C@@H](O)[C@H]1O [Compound 662, 4-[(1R,2R,3S,4R)-4-{4-Amino-2-chloropyrrolo[2,3-d]pyrimidin-7-yl}-2,3-dihydroxycyclopentyl]-1H-pyridin-2-one]",≤ 10,1000 to 10000,100 to 1000
"COc1cc([C@H]2C[C@@H](n3ccc4c(N)nc(Cl)nc43)[C@H](O)[C@@H]2O)ccn1 [Compound 663, (1R,2S,3R,5R)-3-{4-Amino-2-chloropyrrolo[2,3-d]pyrimidin-7-yl}-5-(2-methoxypyridin-4-yl)cyclopentane-1,2-diol]",≤ 10,100 to 1000,10 to 100
"COc1cc(OC)cc([C@H]2C[C@@H](n3ccc4c(N)nc(Cl)nc43)[C@H](O)[C@@H]2O)c1 [Compound 664, (1R,2S,3R,5R)-3-{4-Amino-2-chloropyrrolo[2,3-d]pyrimidin-7-yl]-5-(3,5-dimethoxyphenyl)cyclopentane-1,2-diol]",10 to 15,100 to 1000,10 to 100
"COc1cc(CN)cc([C@H]2C[C@@H](n3ccc4c(N)nc(Cl)nc43)[C@H](O)[C@@H]2O)c1 [Compound 665, (1R,2S,3R,5R)-3-(4-amino-2-chloro-7H-pyrrolo[2,3-d]pyrimidin-7-yl)-5-(3-(aminomethyl)-5-methoxyphenyl)cyclopentane-1,2-diol]",15 to 20,100 to 1000,≤ 10
"COc1cc(Br)cc([C@H]2C[C@@H](n3ccc4c(N)nc(Cl)nc43)[C@H](O)[C@@H]2O)c1 [Compound 666, (1R,2S,3R,5R)-3-(4-amino-2-chloro-7H-pyrrolo[2,3-d]pyrimidin-7-yl)-5-(3-bromo-5-methoxyphenyl)cyclopentane-1,2-diol]",10 to 15,100 to 1000,10 to 100
"COc1cc(-c2cnsc2)cc([C@H]2C[C@@H](n3ccc4c(N)nc(Cl)nc43)[C@H](O)[C@@H]2O)c1 [Compound 667, (1R,2S,3R,5R)-3-(4-amino-2-chloro-7H-pyrrolo[2,3-d]pyrimidin-7-yl)-5-(3-(isothiazol-4-yl)-5-methoxyphenyl)cyclopentane-1,2-diol]",10 to 15,1000 to 10000,10 to 100
